# Experimental data published in patent US20130210633A1, “METHOD FOR REDUCING WATER STRESS IN PLANTS” (SUMITOMO CHEMICAL COMPANY, LIMITED, priority 2010, published 2013).
# Structures can show the parent of a compound that is named as a salt.
# Test system: rice (cultivar: Nipponbare)
# Assay: Evaluation test for reduction of drought stress by rice seed treatment (plant weight)
# Assay type: in vivo
# Conditions: with drought stress conditions; for Ratio to non-treated group: fresh weight of above-ground part; for Fresh weight of the above-ground part: seed treatment, average of 3 repetitions
# Protocol: Evaluation Test for Reduction of Drought Stress by Rice Seed Treatment (Plant Weight) A Blank slurry solution containing 5% (V/V) color coat red (Becker Underwood, Inc.), 5% (V/V) CF-Clear (Becker Underwood, Inc.) and 0.4% Maxim XL (Syngenta) was prepared. A sodium salt of the compound “A” was dissolved in the Blank slurry to obtain a slurry solution containing the sodium salt of the compound “A” in a concentration of 333 to 10,000 ppm. In a 50-ml centrifuge tube made of a plastic, 300 μl of the above slurry solution was added to 10 g of rice seeds (cultivar: Nipponbare), followed by stirring for 3 to 5 minutes and further drying of the seeds. As a control, seeds treated by using the Blank slurry in place of the above slurry solution were used as seeds for a non-treated group. On wells of a 406-well plug plate, a filter paper was placed and rice seeds subjected to the above seed treatment were sown on the filter paper. Using a two-fold diluted Kimura B water culture solution (Plant Science 119: 39-47 (1996)), cultivation was performed for 14 days under the conditions of a temperature of 28° C./23° C. (day/night), an illuminance of 8,500 1× and a day length of 12 hours to obtain test plants. Test plants (each 5 seedlings) were placed in an empty 35 ml flat-bottomed test tube ([…]/manufactured by Sarstedt) and then left to stand for 2 days without being capped (this was used as a test group with the drought stress conditions). As a test group without the drought stress conditions, the test plants (each 5 seedlings) were placed in a centrifuge tube filled with 10 ml of a two-fold diluted Kimura B water culture solution, and then left to stand for 2 days without being capped. After that, the plants (each 5 seedlings) were transplanted to a plastic pot (N-71-130G, manufactured by TOKAN KOGYO CO., LTD.) filled with the field soil which had been subjected to a sterilization treatment and then cultivated for 14 days under the conditions of a temperature of 28° C./23° C. (day/night), an illuminance of 8,500 1× and a day length of 12 hours while performing bottom-surface irrigation. After the drought stress treatment, the fresh weight of the above-ground part of the five individuals of test plants in each test group was collectively measured and an average of 3 repetitions of each test group was determined. As a result, the fresh weight of the above-ground part of the test group in the present invention was apparently large as compared with the control and drought stress was reduced.
smiles,measurement,setting,value
"O=C(O)CCC(=O)NCCc1ccccc1 [Compound A, Na salt, 4-oxo-4-(2-phenylethyl)aminobutyric acid]",Ratio to non-treated group,0.01 mg/g of seeds,105%
same,Ratio to non-treated group,0.1 mg/g of seeds,105%
same,Ratio to non-treated group,0.25 mg/g of seeds,119%
same,Ratio to non-treated group,0.3 mg/g of seeds,121%
same,Fresh weight of the above-ground part,amount of chemical 0.01 mg/g of seeds,0.73 g/5 seedlings
same,Fresh weight of the above-ground part,amount of chemical 0.1 mg/g of seeds,0.73 g/5 seedlings
same,Fresh weight of the above-ground part,amount of chemical 0.25 mg/g of seeds,0.83 g/5 seedlings
same,Fresh weight of the above-ground part,amount of chemical 0.3 mg/g of seeds,0.84 g/5 seedlings
